Laboratory results taken from patent US20030134783A1, “Use of cyclic heptapeptides for the inhibition of biofilm formation” (priority 2001, published 2003).
Numbered stars: 1 amine (or outer) side, 2 acyl side, 3 side chain; on linkers, the order of the positions; unused ones are H or OH. Bridge positions count the residues as written; N and C are the ends. Square brackets hold non-standard residues; d marks the D form. Peptide text beside a SMILES is read from it. X1 = CC(C)CCCCCCCCC[C@H](CC(=O)[*:1])O[*:2]

Key:
[1] = system: S. enterica pre-formed biofilm; assay: Dispersal of pre-formed biofilm in PVC wells; format: cell-based, Salmonella enterica; details: for effect on pre-formed biofilms: detergent-like compounds mixed into cultures in PVC wells
Method: (§1) Studies were done to test biofilm formation in microtitre wells. To quantify biofilm formation, typically, 10 μl of an overnight culture were used to inoculate PVC microtitre wells containing 90 μl of LB without NaCl, but with 2% glucose. The covered microtitre dish was sealed with parafilm during incubation at 30° C. Cultures were removed to determine the OD630, and the wells were rinsed with distilled water. After drying at room temperature for 15 minutes, 200 μl of crystal violet (1%) was added to the wells for 20 minutes The stained biofilms were rinsed several times with distilled water, allowed to dry at room temperature for 15 minutes, and extracted with 2×200 μl 95% ethanol. The OD550 was estimated using a Beckman DU-640B spectrophotometer, after adjusting the volume to 1 mL with distilled water.
Surfactin was added to PVC wells after the culture had reached an OD630 of approximately 0.15-0.2. When this OD was reached, the surfactants were gently mixed into the cultures in microtitre wells. Samples were harvested and either growth as determined by OD630 or biofilm levels as measured by OD550 of CV-stained material were analyzed. The OD550 of the surfactin-treated sample decreased at a faster rate than that of the untreated sample for the initial sloughing phase of BF, resulting in an approximately 85% decrease in total biofilm by the end of the experiment at 22 hours.
The detergents tested were SDS (ionic surfactant), Tween-80 ([…] surfactant), rhamnolipid (another lipopeptide surfactant) and serrawettin. Surfactin concentration in this and the rest of the studies was maintained at 100 μg in order to compare its activity to that of the biosurfactant rhamnolipid, which affected BF when it was used at higher concentrations.

Salmonella typhimurium = assay: Biofilm formation in catheters, crystal violet staining; format: cell-based; design: key to Biofilm Formation: “++++” = efficient biofilm formation; “−” = no biofilm formation; details: for inhibition of BF by S. enterica relative to surfactin: catheters, Tween 80 at 0.25%, 10 to 100 million bacterial cells
Method: (§2) To visualize biofilm formation in catheters, 10 μl of an overnight culture of S. enterica was inoculated into 500 μl of medium and injected into clear vinyl urethral catheters overnight at 30° C., with and without 100 μg surfactin. Biofilms were analyzed by staining with CV. The catheters were capped at both ends and incubated at 30° C. overnight. Media and growth conditions were as described above for PVC wells. Cultures were removed to determine the OD630, and the catheters were rinsed with distilled water. After drying at room temperature for 15 minutes, 700 μl of crystal violet (1%) was added to the catheters for 20 minutes. The stained biofilms were rinsed several times with distilled water, and allowed to dry at room temperature for 15 minutes before examination.
S. enterica was grown in clear vinyl urethral catheters. The biofilm formed by S. enterica was dispersed all along the growth surface. […] It is important to note that the same results were obtained when venous catheters made of polyurethane were tested. The data presented here relate mainly to the urethral catheters.
When the device coated is to be inserted in the body cavity, some form of surface sterilization may be necessary. Also, endogenous fluids should not wash off the surfactin coating. Studies were conducted to determine these properties of the coating (Table 1). Urethral catheters were coated with surfactin (by passing through 500 μl of a solution of 1.0 μg/μl surfactin), and 10 mL of sterile saline solution were passed through the coated catheter.
After coating urethral cathethers with surfactin, the coated catheters were subjected to treatment in an autoclave (121° C., 15 psi) for 30 minutes or baking in a 50° C. oven for 6 hours. […] Surfactin, apparently adhered to the catheters, largely inhibiting biofilm formation.
The biofilm-inhibiting properties of surfactin are not altered after storing surfactin-baked catheters (baked for one hour at 60° C.) for 5 days at room temperature (Table 2). Further, baked on surfactin is not washed off by sterile saline dripping through the catheter at 0.3 mL/minutes for 24 hours. The BF-inhibiting properties of surfactin are stable over 50 days of storage at either room temperature or at 4° C. Thus, medical devices coated with surfactin, or a substance with surfactin-like properties, may be partially sterilized by baking at 60° C., and the sterility would be maintained over a long period of time.

wild-type S. enterica = assay: Biofilm formation in PVC microtitre wells, crystal violet staining; format: cell-based, Salmonella enterica
Method: The ability of lipopolysaccharide (LPS) mutants to form biofilms was tested in PVC microtitre plates. The biofilm assay used monitors the ability of S. enterica to attach to the wells of the microtitre dishes. The biofilm formed at the interface between the air and liquid medium, and was quantitated by staining with crystal violet (CV) as described in the examples given below.
as §1
The swarming defect of the LPS mutants could be rescued by the addition of the surfactin isolated from Bacillus subtilis. […]

[2] = system: LPS mutants of S. enterica; assay: Rescue of swarming defect of LPS mutants; format: cell-based, Salmonella enterica; details: addition of surfactin isolated from Bacillus subtilis
Proteus mirabilis = assay: Biofilm formation in urethral catheters, crystal violet staining; format: cell-based
Method: as §2
(§3) The most common causes of central urinary catheter and central venous catheter infections (caused by adherent bacteria), include Eschericila coli, Proteus mirabilis, and Pseudomonas aeruginosa, Klebseiella pneumoniae, Staphylococcus epidermis. The effect of surfactin on BF by some of these medically relevant organisms was tested by growth of the organism in urethral catheters (Table 3). Escherichia coli and Proteus mirabilis formed a biofilm mainly at the air liquid interface, while the biofilm formed by P. aeruginosa, like that formed by S. enterica, was dispersed all along the catheter.

Staphylococcus epidermis = assay: as above; format: cell-based; details: Surfactin-coated catheters
Method: as §2, §3

Escherichia coli = assay: as above; format: cell-based
Method: as §2, §3

Compound: CCCCCCCC/C=C\CCCCCCCC(=O)OCCOCC(OCCO)C1OCC(OCCO)C1OCCO (centres unmarked) [Tween-80, reference compound]
- effect on pre-formed biofilms [1]: dispersed pre-formed biofilm
- inhibition of BF by S. enterica relative to surfactin (Salmonella typhimurium): as effective as surfactin

Compound: serrawettin
- effect on pre-formed biofilms [1]: dispersed pre-formed biofilm

Compound: rhamnolipid [reference compound]
- effect on pre-formed biofilms [1]: dispersed pre-formed biofilm
- inhibition of BF by S. enterica relative to surfactin (Salmonella typhimurium): only half as effective

Compound: CC(C)CCCCCCCCC[C@@H]1CC(=O)N[C@@H](CCC(=O)O)C(=O)N[C@@H](CC(C)C)C(=O)N[C@H](CC(C)C)C(=O)N[C@@H](C(C)C)C(=O)N[C@@H](CC(=O)O)C(=O)N[C@H](CC(C)C)C(=O)N[C@@H](CC(C)C)C(=O)O1 [Surfactin, surfactin] (EL[dL]VD[dL]L; linker N-C via X1)
- amount of surfactin sufficient to completely abolish BF (wild-type S. enterica; PVC wells pre-coated or surfactin in growth medium, overnight at 30° C.): < 5 µg
- Bacterial growth (wild-type S. enterica; all surfactin concentrations tested): unaffected
- swarming defect of the LPS mutants [2]: rescued
- Biofilm formation, optical density reading based on crystal violet staining (Proteus mirabilis; Surfactin-coated catheters): 0.11
- inhibition of BF and growth (Proteus mirabilis; growth in urethral catheters): inhibited BF (but not growth)
- Biofilm formation, optical density reading based on crystal violet staining (Staphylococcus epidermis): 0.40
- Biofilm formation, optical density reading based on crystal violet staining (Escherichia coli; Surfactin-coated catheters): 0.05
- inhibition of BF and growth (Escherichia coli; growth in urethral catheters): inhibited BF (but not growth)
- decrease in total biofilm (pre-formed) ([1]; surfactin 100 μg added at OD630 0.15-0.2, end of experiment at 22 hours): approximately 85%
- stability of BF-inhibiting properties on storage (Salmonella typhimurium; 50 days of storage at room temperature or at 4° C.): stable
- Biofilm formation, optical density reading based on crystal violet staining (Salmonella typhimurium; Surfactin-coated catheters): 0.05
- Biofilm Formation (Salmonella typhimurium; catheter treatment: Surfactin, saline wash (10 mL sterile saline)): ++++
- Biofilm Formation (Salmonella typhimurium; catheter treatment: Surfactin, the oven (50° C., 6 hours)): −
- formation of biofilm on the catheters (Salmonella typhimurium; clear vinyl urethral catheters, 100 μg surfactin, overnight at 30° C.): eliminated the formation of biofilm
- effect of oven treatment on biofilm inhibition by surfactin (Salmonella typhimurium; coated catheters baked in 50° C. oven for 6 hours): no effect
- resistance of baked surfactin coating to saline washing (Salmonella typhimurium; oven treatment of surfactin coated catheters): resistant to saline washing
- effectiveness of pre-coating catheters versus surfactin in the growth medium (Salmonella typhimurium; surfactin solution run through catheters prior to inoculation): just as effective
- Biofilm formation, optical density reading based on crystal violet staining (Salmonella typhimurium; surfactin-baked catheters (one hour at 60° C.), 5 days at room T.): 0.05
- Biofilm formation, optical density reading based on crystal violet staining (Salmonella typhimurium; surfactin-baked catheters, 24 hour saline wash (0.3 mL/minutes)): 0.06
- Biofilm Formation (Salmonella typhimurium; urethral catheter treatment: Surfactin): −

Compound: CCCCCCCCCCCCOS(=O)(=O)[O-].[Na+] [SDS]
- effect on pre-formed biofilms [1]: dispersed pre-formed biofilm
